This is an account of results in patent US10144738B2, “Pyrazolo[1,5-A]PYRAZIN-4-YL derivatives” (Pfizer Inc., priority 2016, dated 2018).

pIC50: −log10 of the molar value.

What all share (format): biochemical
Settings in all cases: recombinant human kinase domain, Caliper mobility shift

The target in test [1] is TYK2 (Homo sapiens (Human), UniProt P29597). Description: JAK Caliper enzyme assay at 1 mM ATP (TYK2). On the procedure: (§1) Compounds of the invention were evaluated by in vitro methods to determine their respective ability to inhibit the JAK kinases (TYK2, JAK1, JAK2, JAK3).
Chain of TYK2 (P29597 897-1176): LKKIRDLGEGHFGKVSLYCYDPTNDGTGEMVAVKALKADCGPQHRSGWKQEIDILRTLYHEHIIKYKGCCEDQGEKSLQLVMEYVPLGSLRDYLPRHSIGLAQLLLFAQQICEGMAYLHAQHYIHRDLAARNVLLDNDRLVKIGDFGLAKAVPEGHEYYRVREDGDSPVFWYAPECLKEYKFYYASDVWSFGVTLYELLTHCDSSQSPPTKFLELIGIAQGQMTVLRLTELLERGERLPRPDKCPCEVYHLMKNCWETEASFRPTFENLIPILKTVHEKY
(§2) The human JAK inhibitory activity was determined by using a microfluidic assay to monitor phosphorylation of a synthetic peptide by the recombinant human kinase domain of each of the four members of the JAK family, JAK1, JAK2, JAK3 and TYK2. […] Each assay condition was optimized for enzyme concentration and room temperature incubation time to obtain a conversion rate of 20% to 30% phosphorylated peptide product. Reactions were terminated by the addition of stop buffer containing EDTA. Utilizing the LabChip 3000 mobility shift technology (Caliper Life Science), each assay reaction was sampled to determine the level of phosphorylation. This technology is separation-based, allowing direct detection of fluorescently labeled substrates and products. Separations are controlled by a combination of vacuum pressure and electric field strength optimized for each peptide substrate.
(§3) JAK Caliper Enzyme Assay at 1 mM ATP
(§4) Compounds were added to a 384-well plate. Reaction mixtures contained 10 mM HEPES, pH 7.4, 10 mM MgCl2, 0.01% BSA, 0.0005% Tween 20, 1 mM ATP and 1 μM peptide substrate. […] The assays were initiated by the addition of 20 nM JAK1, 1 nM JAK2, 1 nM JAK or 1 nM TYK2 enzyme and were incubated at room temperature for three hours for JAK1, 60 minutes for JAK2, 75 minutes for JAK3 or 135 minutes for TYK2. Enzyme concentrations and incubation times were optimized for each new enzyme preps and were modified slightly over time to ensure 20% to 30% phosphorylation. The assays were stopped with 15 μL of 180 mM HEPES, pH 7.4, 20 mM EDTA, and 0.2% Coating Reagent 3. The assay plates were placed on a Caliper Life Science LC3000 instrument, and each well was sampled using appropriate separation conditions to measure the unphosphorylated and phosphorylated peptide.
(§5) The data was collected using the HTS Well Analyzer software from Caliper Life Sciences. The data output for data analysis is the percent product converted calculated on peak height (Equation 1). % product converted=100*((product)/(product+substrate)) Equation 1: […]
(§6) The percent effect at each compound concentration was calculated based on the positive and negative control well contained within each assay plate (Equation 2). […] The negative control wells contained DMSO alone (at the same concentration as the compound wells) that was used to set the baseline activity in the assay (i.e., uninhibited JAK1, JAK2, JAK3 or TYK2). % effect=100*((sample well−negative control)/(positive control-negative control)) Equation 2: The percent effect was plotted against the compound concentration compound.

Test [2] concerns the target JAK3 (Homo sapiens (Human), UniProt P52333). Description: JAK Caliper enzyme assay at 1 mM ATP (JAK3). On the procedure:
as §1, §2, §3, §4, §5, §6

Test [3] addresses JAK2 (Homo sapiens (Human), UniProt O60674). In words: JAK Caliper enzyme assay at 1 mM ATP (JAK2). As for the experimental part:
as §1, §2, §3, §4, §5, §6

For test [4], the target named is JAK1 (Homo sapiens (Human), UniProt P23458). In words: JAK Caliper enzyme assay at 1 mM ATP (JAK1). As for the experimental part: Compounds of the invention were evaluated by in vitro methods to determine their respective ability to inhibit the JAK kinases (TYK2, JAK1, JAK2, JAK3). The human JAK inhibitory activity was determined by using a microfluidic assay to monitor phosphorylation of a synthetic peptide by the recombinant human kinase domain of each of the four members of the JAK family, JAK1, JAK2, JAK3 and TYK2. […] Reactions were terminated by the addition of stop buffer containing EDTA. Utilizing the LabChip 3000 mobility shift technology (Caliper Life Science), each assay reaction was sampled to determine the level of phosphorylation. This technology is separation-based, allowing direct detection of fluorescently labeled substrates and products. Separations are controlled by a combination of vacuum pressure and electric field strength optimized for each peptide substrate. […] Compounds were added to a 384-well plate. […] Enzyme concentrations and incubation times were optimized for each new enzyme preps and were modified slightly over time to ensure 20% to 30% phosphorylation. […] The assay plates were placed on a Caliper Life Science LC3000 instrument, and each well was sampled using appropriate separation conditions to measure the unphosphorylated and phosphorylated peptide. The data was collected using the HTS Well Analyzer software from Caliper Life Sciences. […] The percent effect at each compound concentration was calculated based on the positive and negative control well contained within each assay plate (Equation 2). […] The percent effect was plotted against the compound concentration compound. […] Where max is the maximum asymptote (complete inhibition), min is the minimum asymptote (no inhibition) and s is the slope factor.
Chain of JAK1 (P23458 875-1153): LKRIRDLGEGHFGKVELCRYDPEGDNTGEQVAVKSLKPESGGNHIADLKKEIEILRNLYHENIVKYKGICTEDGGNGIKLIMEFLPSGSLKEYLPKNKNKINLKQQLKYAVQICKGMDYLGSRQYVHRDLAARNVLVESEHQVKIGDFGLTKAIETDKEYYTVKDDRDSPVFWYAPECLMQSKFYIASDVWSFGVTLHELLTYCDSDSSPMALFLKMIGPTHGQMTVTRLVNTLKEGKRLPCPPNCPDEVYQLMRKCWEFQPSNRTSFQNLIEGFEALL

Chain of JAK3 (P52333 822-1111): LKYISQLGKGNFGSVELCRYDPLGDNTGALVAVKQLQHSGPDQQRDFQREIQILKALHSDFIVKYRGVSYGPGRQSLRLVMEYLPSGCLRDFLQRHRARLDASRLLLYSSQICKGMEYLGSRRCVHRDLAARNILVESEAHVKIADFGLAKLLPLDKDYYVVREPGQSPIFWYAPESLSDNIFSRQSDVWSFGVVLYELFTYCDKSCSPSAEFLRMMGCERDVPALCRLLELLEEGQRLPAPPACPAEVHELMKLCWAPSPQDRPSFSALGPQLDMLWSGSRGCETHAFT
Chain of JAK2 (O60674 849-1124): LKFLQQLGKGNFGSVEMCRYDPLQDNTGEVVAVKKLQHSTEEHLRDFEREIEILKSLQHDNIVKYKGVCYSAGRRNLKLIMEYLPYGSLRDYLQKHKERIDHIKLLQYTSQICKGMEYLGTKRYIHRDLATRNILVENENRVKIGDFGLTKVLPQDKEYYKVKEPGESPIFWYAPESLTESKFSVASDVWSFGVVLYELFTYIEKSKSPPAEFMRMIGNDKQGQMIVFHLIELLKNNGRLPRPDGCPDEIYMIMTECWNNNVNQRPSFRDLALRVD

On to `Cn1cc(-c2cn3nccc3c(-c3cnn([C@]4(CC#N)C[C@@H](C#N)C4)c3)n2)c(CO)n1` [Example 22, (1r,3r)-3-(Cyanomethyl)-3-(4-(6-(3-(hydroxymethyl)-1-methyl-1H-pyrazol-4-yl)pyrazolo[1,5-a]pyrazin-4-yl)-1H-pyrazol-1-yl)cyclobutane-1-carbonitrile], for which the pIC50 (as a rule, −log10 of the IC50, conventionally taken in molar units) in test [1] was 7.52; in test [2] it was under 5.00; in test [3], 6.90; in test [4], 5.59.

Consider `CO[C@H]1C[C@](CC#N)(n2cc(-c3nc(-c4cc(N)n(C)n4)cn4nccc34)cn2)C1` [Example 24, 2-((1r,3s)-1-(4-(6-(5-Amino-1-methyl-1H-pyrazol-3-yl)pyrazolo[1,5-a]pyrazin-4-yl)-1H-pyrazol-1-yl)-3-methoxycyclobutyl)acetonitrile], for which the negative-log IC50 (pIC50) in test [1] was 7.60; in test [2] it was under 5.00; in test [3], 6.36; in test [4] it was 5.45.

As for `Cc1cc(-c2cn3nccc3c(-c3cnn([C@]4(CC#N)C[C@@H](C#N)C4)c3)n2)n[nH]1` [Example 26, (1r,3r)-3-(Cyanomethyl)-3-(4-(6-(5-methyl-1H-pyrazol-3-yl)pyrazolo[1,5-a]pyrazin-4-yl)-1H-pyrazol-1-yl)cyclobutane-1-carbonitrile], the pIC50 is 7.68 in test [1], under 5.00 in test [2], 6.80 in test [3] and 6.15 in test [4].

As for `CO[C@H]1C[C@](CC#N)(n2cc(-c3nc(-c4cc(CO)[nH]n4)cn4nccc34)cn2)C1` [Example 28, 2-((1r,3s)-1-(4-(6-(5-(Hydroxymethyl)-1H-pyrazol-3-yl)pyrazolo[1,5-a]pyrazin-4-yl)-1H-pyrazol-1-yl)-3-methoxycyclobutyl)acetonitrile], the pIC50 in test [1] was 7.57; in test [2], under 5.00; in test [3], 6.60; in test [4], 5.87.

`N#CC[C@]1(n2cc(-c3nc(-c4cc(C(N)=O)no4)cn4nccc34)cn2)C[C@H](C#N)C1` [Example 29, 5-(4-(1-((1r,3r)-3-Cyano-1-(cyanomethyl)cyclobutyl)-1H-pyrazol-4-yl)pyrazolo[1,5-a]pyrazin-6-yl)isoxazole-3-carboxamide]: the pIC50 in test [1] is 6.45; in test [2] it was under 5.00; in test [3] it was 5.52; in test [4], 5.41.

For the molecule `CO[C@H]1C[C@](CC#N)(n2cc(-c3nc(-c4cn(C)nc4CO)cn4nccc34)cn2)C1` [Example 31, 2-((1r,3s)-1-(4-(6-(3-(Hydroxymethyl)-1-methyl-1H-pyrazol-4-yl)pyrazolo[1,5-a]pyrazin-4-yl)-1H-pyrazol-1-yl)-3-methoxycyclobutyl)acetonitrile], the pIC50 in test [1] was 7.42; in test [2], under 5.00; in test [3], 6.49; in test [4] it was under 5.01.

For `Cn1cc(-c2cn3nccc3c(-c3cnn([C@]4(CC#N)C[C@@H](C#N)C4)c3)n2)nn1` [Example 33, (1r,3r)-3-(Cyanomethyl)-3-(4-(6-(1-methyl-1H-1,2,3-triazol-4-yl)pyrazolo[1,5-a]pyrazin-4-yl)-1H-pyrazol-1-yl)cyclobutane-1-carbonitrile], the negative logarithm of the IC50 (pIC50) in test [1] is 7.28; in test [2], under 5.00; in test [3], 6.35; in test [4], 5.06.

Regarding `Cn1cc(-c2cn3nccc3c(-c3cnn([C@]4(CC#N)C[C@](C)(C#N)C4)c3)n2)cn1` [Example 34, (1s,3s)-3-(Cyanomethyl)-1-methyl-3-(4-(6-(1-methyl-1H-pyrazol-4-yl)pyrazolo[1,5-a]pyrazin-4-yl)-1H-pyrazol-1-yl)cyclobutane-1-carbonitrile], the pIC50 in test [1] was 7.96; in test [2], 5.49; in test [3], 7.72; in test [4] it was 7.02.
